Measured values reported in patent US20260048046A1, “METHOD FOR IMPROVING GROWTH PERFORMANCE IN FEEDLOT CATTLE” (Elanco US Inc., priority 2022, published 2026).

System: beef cattle
Test: 91-d study: growth performance of beef cattle fed lubabegron
Format: in vivo
Settings: for ADG / DMI / G:F / Unshrunk final BW: 91-d treatment, LS mean
Excerpt: A randomized complete block design was used to evaluate the effect of lubabegron (LUB) on performance over a 91-d period using 336 beef cattle (BW=453±34.5 kg) housed in cattle pen enclosures (CPE). Four LUB treatments were included in the study based on dose: 0.0 (control or CON), 1.38, 5.5, and 22.0 (mg·kg^−1 of DM). Because there was a limited number of CPE (n=8), three sequential cycles (blocks) were required to generate 6 replicates of each dose×sex combination. As such, 112 cattle (56 steers and 56 heifers) were housed concurrently within each cycle across the eight CPE (14 cattle/CPE), with each dose×sex combination being represented by a single CPE/cycle. To assure different frame sizes of cattle were represented, cattle in cycles one and three were large-frame Continental crossbreds, whereas cattle in cycle 2 were medium-frame British crossbreds.
Treatment administration for the three cycles occurred from April through July, August through November, and December through March of 2014 and 2015, respectively. Four weeks before beginning treatments for each cycle (day −28), up to 145 cattle were sourced from a common origin and transported to the study site at the University of California-Davis to be group-housed in single-sexed outdoor pens. The presence of growth-promoting implants was assessed, and any preexisting implants were excised before shipment to the study site to ensure they had been implant-free for a minimum of 28 d before treatments began on day 0. No additional implants were used in these cattle, and they were considered nonimplanted.
On day −8, cattle were screened for abnormal health conditions by a veterinarian and ranked by BW to identify the 56 eligible cattle within each sex that provided the narrowest weight range. The following day (day −7), the 56 cattle selected for study enrollment. within each sex were grouped into sets of four consecutively weight-ranked cattle. Cattle were then randomly allocated to their respective treatment within each weight group and transferred into the CPE. The CPE were randomly assigned to sex and dose treatment before each cycle, and all study personnel were blinded to treatments throughout the duration of the study. All cattle were fed the negative control basal finishing diet (Table 1) for 1 week (days −7 to −1) after being placed into the CPE to allow for acclimation before beginning treatments.
Treatments began on day 0 and cattle in each CPE received their respective treatment for 91 d. Emission measurements began at 0800 hours on day 0 and ended at 0500 hours on day 91, immediately preceding cattle removal from the CPE for final BW measurements and transportation to the commercial slaughter facility.
Cattle had been fed a concentrate-based diet in a commercial setting before arrival at the study site on day −28, at which point they were provided ad libitum access to water and re-acclimated to a concentrate-based diet using a step-up program involving two intermediate diets based on increasing concentrate levels (˜60% and 70%, respectively) and varying proportions of alfalfa and wheat hay. On day −14, cattle were transitioned onto a finishing diet (Table 1) formulated to meet, or exceed, the minimum nutrient requirements for growing beef cattle (NRC, 2000) that was then fed for the remainder of the study. A nonmedicated supplement (i.e., type B feed with a ground corn carrier) was included as 2.5% of the diet DM during acclimation for all cattle from day −14 until the beginning of treatment administration. On day 0, one of four type B supplements were added to the basal diet to provide either 0.0 (CON), 1.38, 5.5, or 22.0 mg·kg^−1 (DM basis) LUB in a type C (i.e., final feed) medicated feed. All type C feeds containing the appropriate concentrations of LUB or CON were prepared at the study site by adding the same proportions of Type B supplement, water, and basal ration in a rotary mixer wagon (Roto-Mix Forage Express, Dodge City, KS). […]

Compound: CC(C)(Cc1ccc(Oc2ncccc2C#N)cc1)NC[C@H](O)COc1ccccc1-c1cccs1 [LUB, 2-{4-[2-({(2S)-2-Hydroxy-3-[2-(2-thienyl)phenoxy]propyl}amino)-2-methylpropyl]phenoxy}nicotinonitrile]
- Effect of LUB treatment on final BW (91 d, all LUB doses vs CON, P=0.257): not altered
- Effect of LUB on DMI (91 d, all LUB doses vs CON, P=0.585): no effect
- ADG increase vs. CON (LUB 1.38 mg·kg^−1, 91 d): 11.8%
- G:F increase compared with CON (LUB 1.38 mg·kg^−1, 91 d): 8.3%
- ADG (LUB 1.38 mg·kg^−1 DM): 1.42 kg
- DMI (LUB 1.38 mg·kg^−1 DM): 9.2 kg
- G:F (LUB 1.38 mg·kg^−1 DM): 0.156 kg:kg
- Unshrunk final BW (LUB 1.38 mg·kg^−1 DM): 583 kg
- ADG increase vs. CON (LUB 5.5 mg·kg^−1, 91 d): 9.4%
- G:F increase compared with CON (LUB 5.5 mg·kg^−1, 91 d): 9.7%
- ADG (LUB 5.5 mg·kg^−1 DM): 1.35 kg
- DMI (LUB 5.5 mg·kg^−1 DM): 8.8 kg
- G:F (LUB 5.5 mg·kg^−1 DM): 0.158 kg:kg
- Unshrunk final BW (LUB 5.5 mg·kg^−1 DM): 582 kg
- ADG increase vs. CON (LUB 22.0 mg·kg^−1, 91 d): 12.6%
- G:F increase compared with CON (LUB 22.0 mg·kg^−1, 91 d): 13.2%
- ADG (LUB 22.0 mg·kg^−1 DM): 1.43 kg
- DMI (LUB 22.0 mg·kg^−1 DM): 8.8 kg
- G:F (LUB 22.0 mg·kg^−1 DM): 0.163 kg:kg
- Unshrunk final BW (LUB 22.0 mg·kg^−1 DM): 582 kg
